Assay results from patent US20060110790A1, “Expression system for large functional proteins” (priority 2002, published 2006).

How the values were obtained:
[1] = target: T1, ABCR K939M, K1978M and K939M/K1978M mutants (Homo sapiens, UniProt P78363, K1978M/K969M); assay: ATPase activity of Walker A lysine-to-methionine mutants; format: biochemical; details: 50 μM all-trans retinal
T1 construct: made in house
Method: FIG. 4. Lysine to methionine Walker A mutations in ABCR abolish ATP hydrolysis but not ATP binding. A. ATPase activity was measured in the absence (white bars) or presence of 50 μM all-trans retinal (grey bars). WT, wild-type; K969M in NBD1; K1978M in NBD2; MM, K969M/K1978M double mutant; NCM, N-half co-expressed with C-half containing a K1978M mutation. B. ATP photoaffinity labeling was carried out by irradiating membranes from COS-1 cells expressing wild-type (WT), K969M, K1978M, or K969M/K1978M double mutant (MM) with 3 μM 8-azido-[α-^32P]ATp. The labeled protein was isolated with Rim3F4-Sepharose and separated on SDS gels. Left panel: gel stained with Coomassie blue. Right panel: corresponding ^32P labeling obtained with a phosphorimager. All mutant proteins were labeled with 8-azido-[α-^32P]ATP, but the double mutant bound less nucleotide.
ATPase activity was measured as described previously (Ahn, J., Wong, J. T., and Molday, R. S. (2000) J Biol Chem 275(27), 20399-405) using 50 μM [α^32P]ATP and thin layer chromatography. The all-trans retinal concentration was determined spectrophotometrically (λ383 nm=42.88 mM^−1 cm^−1). Protein concentration was estimated from the eluate before reconstitution by laser densitometry of Coomassie blue stained gels using bovine serum albumin as a standard. […]

ABCR = target: T2, ABCR (Homo sapiens, UniProt P78363); assay: 8-azido-ATP/ADP nucleotide trapping in membranes from transfected cells; format: binding; details: 50 μM all-trans retinal, 5 μM 8-azido-[α-32P]ATP, 37° C.
T2 construct: Membranes from transfected cells expressing either full-length ABCR (lanes 1 & 2) or co-expressing the N and C halves; expressed in transfected cells; host or cells: transfected cells (COS-1 or EBNA293)
Method: FIG. 7. Nucleotide trapping by ABCR and co-expressed N and C halves. A. Effect of orthovanadate on nucleotide trapping. Membranes from transfected cells were incubated with 5 μM 8-azido-[α-^32P]ATP at 37° C., washed, and tightly bound nucleotides were UV crosslinked. Lane 1, full-length ABCR; lane 2, full-length ABCR incubated with 800 μM orthovanadate; lane 3, co-expressed N and C halves; lane 4, co-expressed N- and C-halves incubated with 800 μM orthovanadate. B. Effect of temperature and retinal on nucleotide trapping. Lane 1, full-length ABCR labeled at 0° C.; lane 2, full-length ABCR labeled at 37° C.; lane 3, full-length ABCR labeled at 37° C. in the presence of 50 μM all-trans retinal; lane 4, co-expressed N and C halves labeled at 0° C.; lane 5, co-expressed N and C halves labeled at 37° C.; lane 6, co-expressed N and C halves labeled at 37° C. in the presence of 50 μM all-trans retinal.
8-Azido-ATP Trapping—Membranes were incubated with 5 μM 8-azido-[α-^32P]ATP in 50 μl of labeling buffer with or without 800 μM sodium orthovanadate for 10 min at 37° C. All-trans retinal and 50 μM DTT were added where indicated. Binding was stopped by the addition of ice-cold 20 mM Tris-HCl, pH 7.4, the membranes were collected by centrifugation and washed one more time. Samples exposed to orthovanadate were washed in the presence of 800 μM orthovanadate. […]

full-length ABCR = full-length ABCR (Homo sapiens, UniProt P78363); assay: Retinal-stimulated ATPase activity of purified protein reconstituted in lipid vesicles; format: biochemical; design: Membranes from transfected cells expressing either full-length ABCR (lanes 1 & 2) or co-expressing the N and C halves; expressed in transfected cells; host or cells: transfected cells (COS-1 or EBNA293); details: expressed in COS-1 cells, purified on Rim 3F4 column, 50 μM [α32P]ATP
Method: Membranes (from two 10 cm dishes) were solubilized in 0.5 ml of 1% Triton-X100 in Buffer A (140 mM NaCl, 20 mM Tris-HCl, pH 7.4) for 20 min on ice. For ATPase assays, the membrane preparation step was omitted and the cell suspension was solubilized directly in Buffer B (10 mg/ml soybean phospholipids, 10% glycerol, 1 mM dithiothreitol, 100 mM NaCl, 3 mM MgCl2, 50 mM NaHEPES, pH 7.4) containing 18 mM CHAPS. The supernatant after a 10 min centrifugation at 40,000 rpm (TLA100.4 rotor) was mixed with 50 μl Rim3F4 Sepharose 2B for 1 h at 4° C. The beads were washed 6 times in Buffer A containing 0.2% Triton X-100 or Buffer B containing 10 mM CHAPS and eluted with 4% SDS (for electrophoresis) or 0.2 mg/ml Rim3F4 peptide (for reconstitution and determination of ATPase activity). […]
ATPase activity was measured as described previously (Ahn, J., Wong, J. T., and Molday, R. S. (2000) J Biol Chem 275(27), 20399-405) using 50 μM [α^32P]ATP and thin layer chromatography. The all-trans retinal concentration was determined spectrophotometrically (λ383 nm=42.88 mM^−1 cm^−1). […]
ATPase Activity of Expressed N and C Halves—The basal and retinal activated ATPase activity of full-length ABCR and the N and C halves individually or co-expressed in COS-1 cells was determined after immunoaffinity purification and reconstitution into lipid vesicles. […]

T2 sequence (P78363 whole entry): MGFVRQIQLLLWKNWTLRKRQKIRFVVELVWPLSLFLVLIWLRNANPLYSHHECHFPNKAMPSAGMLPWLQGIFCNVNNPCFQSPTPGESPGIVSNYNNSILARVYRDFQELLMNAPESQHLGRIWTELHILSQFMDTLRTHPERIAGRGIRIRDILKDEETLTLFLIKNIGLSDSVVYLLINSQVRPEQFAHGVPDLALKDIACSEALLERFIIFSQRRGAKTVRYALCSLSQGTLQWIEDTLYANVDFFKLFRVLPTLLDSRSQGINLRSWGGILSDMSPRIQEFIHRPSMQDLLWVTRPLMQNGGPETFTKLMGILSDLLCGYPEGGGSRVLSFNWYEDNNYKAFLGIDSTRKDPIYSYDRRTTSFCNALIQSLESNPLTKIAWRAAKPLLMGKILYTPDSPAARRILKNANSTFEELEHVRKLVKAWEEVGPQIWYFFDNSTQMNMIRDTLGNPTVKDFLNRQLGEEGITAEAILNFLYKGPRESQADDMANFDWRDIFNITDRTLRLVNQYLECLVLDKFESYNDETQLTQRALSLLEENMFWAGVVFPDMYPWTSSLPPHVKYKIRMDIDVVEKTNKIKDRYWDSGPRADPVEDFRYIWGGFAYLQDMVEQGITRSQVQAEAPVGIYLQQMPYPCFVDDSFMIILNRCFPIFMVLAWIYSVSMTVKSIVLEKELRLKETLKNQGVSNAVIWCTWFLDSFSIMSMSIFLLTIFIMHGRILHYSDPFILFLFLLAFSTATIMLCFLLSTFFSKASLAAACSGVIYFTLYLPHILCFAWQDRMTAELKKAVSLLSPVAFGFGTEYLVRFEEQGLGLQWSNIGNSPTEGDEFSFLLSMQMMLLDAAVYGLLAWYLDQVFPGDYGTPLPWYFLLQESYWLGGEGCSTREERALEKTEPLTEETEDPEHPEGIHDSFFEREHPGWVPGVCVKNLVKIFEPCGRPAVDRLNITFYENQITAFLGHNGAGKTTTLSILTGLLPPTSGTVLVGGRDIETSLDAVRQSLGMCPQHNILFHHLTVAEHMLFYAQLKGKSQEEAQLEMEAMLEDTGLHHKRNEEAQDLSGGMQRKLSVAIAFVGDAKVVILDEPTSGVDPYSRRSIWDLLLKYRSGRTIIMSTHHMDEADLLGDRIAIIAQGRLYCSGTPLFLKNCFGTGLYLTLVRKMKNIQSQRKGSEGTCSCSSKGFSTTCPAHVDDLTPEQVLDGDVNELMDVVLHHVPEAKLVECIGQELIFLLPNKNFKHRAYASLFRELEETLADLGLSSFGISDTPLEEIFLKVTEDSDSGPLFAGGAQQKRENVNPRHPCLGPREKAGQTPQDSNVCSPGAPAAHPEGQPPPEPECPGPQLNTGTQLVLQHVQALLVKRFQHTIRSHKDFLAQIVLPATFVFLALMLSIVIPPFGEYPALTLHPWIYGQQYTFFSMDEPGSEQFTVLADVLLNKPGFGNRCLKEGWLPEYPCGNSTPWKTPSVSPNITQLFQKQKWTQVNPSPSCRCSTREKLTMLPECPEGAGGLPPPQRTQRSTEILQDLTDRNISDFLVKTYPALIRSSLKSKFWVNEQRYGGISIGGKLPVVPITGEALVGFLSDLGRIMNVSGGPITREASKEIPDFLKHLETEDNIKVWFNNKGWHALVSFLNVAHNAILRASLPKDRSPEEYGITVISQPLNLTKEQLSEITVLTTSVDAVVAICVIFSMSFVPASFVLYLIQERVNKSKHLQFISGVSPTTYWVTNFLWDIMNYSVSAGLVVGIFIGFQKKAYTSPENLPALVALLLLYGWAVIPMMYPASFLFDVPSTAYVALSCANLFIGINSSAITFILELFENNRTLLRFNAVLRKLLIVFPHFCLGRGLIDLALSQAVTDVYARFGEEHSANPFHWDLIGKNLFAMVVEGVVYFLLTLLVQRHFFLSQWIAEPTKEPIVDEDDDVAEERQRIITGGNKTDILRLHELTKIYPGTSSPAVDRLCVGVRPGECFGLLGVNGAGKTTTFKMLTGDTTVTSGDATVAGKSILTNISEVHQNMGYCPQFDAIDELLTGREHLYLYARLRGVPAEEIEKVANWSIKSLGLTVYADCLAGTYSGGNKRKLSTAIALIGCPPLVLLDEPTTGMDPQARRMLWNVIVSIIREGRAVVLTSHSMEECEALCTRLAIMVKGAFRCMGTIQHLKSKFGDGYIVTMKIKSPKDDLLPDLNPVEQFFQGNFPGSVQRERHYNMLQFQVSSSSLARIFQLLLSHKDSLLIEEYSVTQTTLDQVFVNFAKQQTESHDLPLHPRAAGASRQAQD
full-length ABCR, sequence (P78363 whole entry): as above
T1 sequence (P78363 whole entry K969M/K1978M): as the sequence (P78363 whole entry) above, with K969M, K1978M counted along it

CC1=C(/C=C/C(C)=C/C=C/C(C)=C/C=O)C(C)(C)CCC1 [all-trans retinal]
retinal activation of ATPase activity [1]: abolished retinal activation
effect on 8-azido ATP/ADP trapping (ABCR): not dependent on sodium orthovanadate or influenced
stimulation of ATPase activity (full-length ABCR): 1-2 fold
